Results: US8063008B2, “Enzymatic production of peracids using perhydrolytic enzymes” (E. I. du Pont de Nemours and Company, priority 2005, dated 2011)
“And” between values parts separate entries of the source, which are not always exact repeats. Identical values can stand only once. Like-named read-outs stand apart in the source and are kept apart here.

What was measured:
[1] = Enzymatic perhydrolysis of triacetin using a combination of lipase and Neutrase at pH 4.0 and 6.5 (Example 24); assay type: biochemical; conditions: triacetin 250 mM, H2O2 500 mM, 22° C.
Description: Reaction mixtures were prepared containing 1 mg lipase (A “Amano” 12 (Amano), Validase AN (Valley Research), or ICR-110 (BioCatalytics)), and 20 μL Neutrase® (Novozymes) in 1.0 mL of 50 mM buffer (either sodium acetate/acetic acid buffer at pH 4.0, or potassium phosphate buffer at pH 6.5), additionally containing triacetin (250 mM) and hydrogen peroxide (500 mM). […] A portion of the filtered reaction samples was diluted 1:10 with dd water and analyzed for hydrogen peroxide, and the remaining portion of the sample was directly analyzed for peracid using the HPLC assay method (Table 29). Reactions were also run with lipase alone or Neutrase® alone for comparison of peracetic acid concentrations produced without the combination of lipase and Neutrase®.

[2] = Enzymatic perhydrolysis of a mixture of diacetin (250 mM), triacetin (88 mM) and monoacetin (192 mM) using lipase and Neutrase at pH 4.0 and 6.5 (Example 25); assay type: biochemical; conditions: monoacetin 192 mM, H2O2 500 mM, 22° C.
Description: Reaction mixtures were prepared containing 1 mg lipase (A “Amano” 12 (Amano), Validase AN (Valley Research), or ICR-110 (BioCatalytics)), and 20 μL Neutrase® (Novozymes) in 1.0 mL of 50 mM buffer (either sodium acetate/acetic acid buffer at pH 4.0, or potassium phosphate buffer at pH 6.5), additionally containing a mixture of diacetin (250 mM), triacetin (88 mM) and monoacetin (192 mM) and hydrogen peroxide (500 mM). After stirring for 5 or 30 minutes at 22° C., a 0.250-mL sample was filtered using a 30,000 NMWL filter (Millipore UltraFree-MC) centrifuged for 2 minutes at 12,000 RPM. A portion of the filtered reaction samples was diluted 1:10 with dd water and analyzed for hydrogen peroxide, and the remaining portion of the sample was directly analyzed for peracid using the HPLC assay method (Table 30). Reactions were also run with lipase alone or Neutrase® alone for comparison of peracetic acid concentrations produced without the combination of lipase and Neutrase®.

E. coli ATCC 11229 = assay: Determination of Minimum Biocidal Concentration (MBC), XTT reduction inhibition (Example 21); assay type: cell-based; conditions: for replicate OD (450 nm): replicates 1-8
Description: The method described by J. Gabrielson, et al. (J. Microbiol. Methods 50: 63-73 (2002)) was employed for determination of the Minimum Biocidal Concentration (MBC) of peracids, or for determination of the MBC of hydrogen peroxide and enzyme substrates. The assay method is based on XTT reduction inhibition, where XTT ((2,3-bis[2-methoxy-4-nitro-5-sulfophenyl]-5-[(phenylamino)carbonyl]-2H-tetrazolium, inner salt, monosodium salt) is a redox dye that indicates microbial respiratory activity by a change in optical density (OD) measured at 490 nm or 450 nm. However, there are a variety of other methods available for testing the activity of disinfectants and antiseptics including, but not limited to viable plate counts, direct microscopic counts, dry weight, turbidity measurements, absorbance, and bioluminescence (see, for example Brock, Semour S., Disinfection, Sterilization, and Preservation, 5th edition, Lippincott Williams & Wilkins, Philadelphia, Pa., USA; 2001).
The filtered enzyme-generated product mixture was diluted 1:5 with sterile water, and the resulting solution was further diluted with sterile water in four 1:1 serial dilutions to obtain the concentrations of PAA and hydrogen peroxide listed in Table 22.
The 1:5 dilution and four serial dilutions were evaluated for biocidal activity by mixing 0.100 mL of the PAA-containing solution with 0.100 mL of an inoculum containing 2.7×10^6 CFU/mL of E. coli ATCC 11229 (American Type Culture Collection, Manassas, Va.) in Millers LB broth diluted with Butterfield Buffer; eight replicates of each mixture were contained in individual wells of a sterile 96-well microtiter plate. After the resulting cell suspensions were allowed to stand for 10 minutes at room temperature, they were tested for viability using the growth indicator XTT (2,3-bis[2-methoxy-4-nitro-5-sulfophenyl]-5-[(phenylamino)carbonyl]-2H-tetrazolium, inner salt, monosodium salt; CAS RN 111072-31-2) according to the method of Gabrielson et al. (J. Microbiol. Methods, 50:63-73 (2002)).
Separately, the cell inoculum was treated with sterile solutions of triacetin (Table 24) or hydrogen peroxide in 50 mM phosphate buffer (pH 6.5) (Table 25) at the concentrations present in each of the biocide dilutions in Table 23 to determine the MBC for these components of the biocide solution.

[3] = target: protease subtilisin from Bacillus amyloliquefaciens (Bacillus amyloliquefaciens, UniProt P00782); conditions: cited from earlier work
[4] = Enzymatic perhydrolysis of propyl acetate at pH 6.5 (Example 11, comparative); assay type: biochemical; conditions: pH 6.5, 2 mg enzyme
Description: Into a 4-mL glass vial with stir bar was added 2 mg of one of the following enzymes: acetylcholinesterase (Sigma, C-2888), Lipase G “Amano” 50 (Amano), or Chirazyme L2, lyo. (C. antartica lipase B, BioCatalytics) dissolved in 0.050 mL of 50 mM potassium phosphate buffer (pH 6.5). To the vial was then added either a) 0.930 mL of a solution containing 50 mM potassium phosphate buffer (pH 6.5) and 215 mM propyl acetate, followed by 0.021 mL 30% hydrogen peroxide (200 mM final hydrogen peroxide concentration) or b) 0.900 mL of a solution containing 278 mM triacetin in 50 mM potassium phosphate buffer (pH 6.5), 0.024 mL of 50 mM potassium phosphate buffer (pH 6.5), and 0.026 mL 30% hydrogen peroxide (250 mM final concentration). […] A portion of the resulting filtrate was diluted 1:10 with dd water and analyzed for hydrogen peroxide, and the remaining portion of the filtrate was directly analyzed for peracid using the HPLC assay method (Table 12).

[5] = Protease-catalyzed perhydrolysis of acetamide at pH 4.0 (Example 6); assay type: biochemical; conditions: pH 4.0, 500 mM H2O2, 1 mg protease
Description: (§1) Into a 4-mL glass vial with stir bar was added 1 mg protease (Table 6) in 0.050 mL of 50 mM sodium acetate/acetic acid buffer (pH 4.0), 0.900 mL of an aqueous mixture containing either a) acetamide (278 mM) in 50 mM sodium acetate/acetic acid buffer (pH 4.0) or b) diacetamide (278 mM) in 50 mM sodium acetate/acetic acid buffer (pH 4.0), and 0.052 mL 30% hydrogen peroxide (500 mM final concentration). […] A portion of the filtered reaction samples was diluted 1:10 with dd water and analyzed for hydrogen peroxide, and the remaining portion of the sample was directly analyzed for peracid using the HPLC assay method (Table 7).

[6] = Protease-catalyzed perhydrolysis of diacetamide at pH 4.0 (Example 6); assay type: biochemical; conditions: pH 4.0, 500 mM H2O2, 1 mg protease
Description: as §1

[7] = Protease-catalyzed perhydrolysis of triacetin at pH 4.0 (Example 7); assay type: biochemical; conditions: pH 4.0, 500 mM H2O2, 1 mg protease
Description: as §1, with “triacetin” for “either a) acetamide (278 mM) in 50 mM sodium acetate/acetic acid buffer (pH 4.0) or b) diacetamide”, “8).” for “7).”

[8] = Protease-catalyzed perhydrolysis of triacetin at pH 6.5 (Example 8); assay type: biochemical; conditions: pH 6.5, 500 mM H2O2, 1 mg protease
Description: The analytical procedure described by U. Karst et al. (Anal. Chem., 69 (17):3623-3627 (1997)) was employed, as described herein, for analysis of product mixtures containing peracid and hydrogen peroxide. Briefly, the concentration of peracetic acid (PAA) in analyzed samples ranged from 0.025 mM-10 mM, and the concentration of H2O2 ranged from 0.075 mM-3 mM. Reaction mixtures containing peracid and/or hydrogen peroxide were, if necessary prior to analysis, diluted to produce a concentration of peracid or peroxide in these ranges. Into a 4-mL vial was placed 0.100 mL of 20 mM methyl p-tolyl sulfide (MTS) in acetonitrile, 0.300 mL of distilled and deionized water (dd) and 0.100 mL of sample solution (undiluted or diluted with dd water by a factor of up to 1:25 for analysis of peracid), or 0.100 mL of 20 mM MTS in acetonitrile and 0.390 mL of dd water were added to 0.010 mL of a 1:10 dilution of sample solution (for analysis of hydrogen peroxide). After a reaction time of 10 minutes (in the dark, with no stirring), 0.400 mL CH3CN and 0.100 mL of 40-mM triphenylphosphine (TPP) in CH3CN were added to start the second derivatization reaction for detection of peroxide. The solution was left standing in the dark for 30 min to complete the assay reaction. At the end of 30 minutes, 0.100 mL of 10 mM N,N-diethyl-m-toluamide (DEET, HPLC external standard) was added and the resulting solution analyzed by HPLC: Supelco Discovery C8 10-cm column with pre-column, 10-μL injection, UV detection at 225 nm, solvent A: acetonitrile, solvent B: deionized water, 1 mL/min gradient as follows: […]
Into a 4-mL glass vial with stir bar was added 1 mg protease (Table 6) in 0.050 mL of 50 mM sodium phosphate buffer (pH 6.5), 0.900 mL of an aqueous mixture containing triacetin (278 mM) in 50 mM phosphate buffer (pH 6.5), and 0.052 mL 30% hydrogen peroxide (500 mM final concentration). After stirring for 5 or 30 minutes at 22° C., a 0.250 mL sample was filtered using a 30,000 NMWL filter (Millipore UltraFree-MC) centrifuged for 2 minute at 12,000 RPM. A portion of the filtered reaction samples was diluted 1:10 with dd water and analyzed for hydrogen peroxide, and the remaining portion of the sample was directly analyzed for peracid using the HPLC assay method (Table 9).

[9] = Protease-catalyzed perhydrolysis of acetamide at pH 6.5 (Example 9); assay type: biochemical; conditions: pH 6.5, 500 mM H2O2, 1 mg protease
Description: as §1, with “potassium phosphate” for “sodium acetate/acetic acid”, “6.5),” for “4.0),”, “6.5)” for “4.0)”, “10).” for “7).”

[10] = Protease-catalyzed perhydrolysis of diacetamide at pH 6.5 (Example 9); assay type: biochemical; conditions: pH 6.5, 500 mM H2O2, 1 mg protease
Description: as §1, with “potassium phosphate” for “sodium acetate/acetic acid”, “6.5),” for “4.0),”, “6.5)” for “4.0)”, “10).” for “7).”

Chain of protease subtilisin from Bacillus amyloliquefaciens (P00782 108-382): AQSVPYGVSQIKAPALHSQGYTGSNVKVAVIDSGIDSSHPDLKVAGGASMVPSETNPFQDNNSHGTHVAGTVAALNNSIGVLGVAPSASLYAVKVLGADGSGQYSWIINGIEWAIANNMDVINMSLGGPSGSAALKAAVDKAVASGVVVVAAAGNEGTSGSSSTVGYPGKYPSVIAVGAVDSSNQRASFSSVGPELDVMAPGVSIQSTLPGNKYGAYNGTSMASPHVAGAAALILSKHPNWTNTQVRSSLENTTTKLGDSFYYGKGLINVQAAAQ

Compound: Neutrase ®: Novozymes; a neutral protease from Bacillus amyloliquefaciens
- peracetic acid (ppm), 5 min ([1]; pH 4.0): 0 ppm
- peracetic acid (ppm), 30 min ([1]; pH 4.0): 0 ppm
- peracetic acid (ppm), 5 min ([1]; pH 6.5): 110 ppm
- peracetic acid (ppm), 30 min ([1]; pH 6.5): 300 ppm
- peracetic acid (ppm), 5 min ([2]; pH 4.0, 5 min): 50 ppm
- peracetic acid (ppm), 30 min ([2]; pH 4.0, 30 min): 110 ppm
- peracetic acid (ppm), 5 min ([2]; pH 6.5, 5 min): 50 ppm
- peracetic acid (ppm), 30 min ([2]; pH 6.5, 30 min): 110 ppm

Compound: OO [Hydrogen Peroxide, hydrogen peroxide]
- MBC (E. coli ATCC 11229; Escherichia coli, ATCC11229, 10 min, E. coli ATCC 11229, 1.35×10^6 CFU/mL, 10 minutes at room temperature, XTT, six-log kill, read-out: Minimum Biocidal Concentration (MBC)): > 170 µg/mL
- blank-corrected mean OD (E. coli ATCC 11229; H2O2 42.5 ppm): 1.710
- mean replicate OD (450 nm) (E. coli ATCC 11229; H2O2 42.5 ppm): 2.134
- replicate OD (450 nm) (E. coli ATCC 11229; H2O2 42.5 ppm): 2.007 and 2.027 and 1.971 and 2.117 and 2.666 and 2.170 and 2.082 and 2.034
- blank-corrected mean OD (E. coli ATCC 11229; H2O2 85.1 ppm): 1.466
- mean replicate OD (450 nm) (E. coli ATCC 11229; H2O2 85.1 ppm): 1.890
- replicate OD (450 nm) (E. coli ATCC 11229; H2O2 85.1 ppm): 1.889 and 1.815 and 1.795 and 1.962 and 2.153 and 1.880 and 1.793 and 1.834
- blank-corrected mean OD (E. coli ATCC 11229; H2O2 170.1 ppm): 0.005
- mean replicate OD (450 nm) (E. coli ATCC 11229; H2O2 170.1 ppm): 0.4295
- replicate OD (450 nm) (E. coli ATCC 11229; H2O2 170.1 ppm): 0.435 and 0.402 and 0.424 and 0.462 and 0.414 and 0.401 and 0.422 and 0.470
- blank-corrected mean OD (E. coli ATCC 11229; H2O2 340.2 ppm): 0.009
- mean replicate OD (450 nm) (E. coli ATCC 11229; H2O2 340.2 ppm): 0.433
- replicate OD (450 nm) (E. coli ATCC 11229; H2O2 340.2 ppm): 0.423 and 0.439 and 0.425 and 0.432 and 0.452 and 0.440 and 0.428 and 0.424
- blank-corrected mean OD (E. coli ATCC 11229; H2O2 680.5 ppm): 0.016
- mean replicate OD (450 nm) (E. coli ATCC 11229; H2O2 680.5 ppm): 0.440
- replicate OD (450 nm) (E. coli ATCC 11229; H2O2 680.5 ppm): 0.433 and 0.440 and 0.426 and 0.430 and 0.453 and 0.456 and 0.436 and 0.446
- inactivation of the protease subtilisin ([3]; 0.1 M hydrogen peroxide, in less than 6 minutes): > 80%
- inactivation of the protease subtilisin ([3]; 1.0 M hydrogen peroxide, in less than 4 minutes): > 80%

Compound: acetyl cholinesterase
- propyl acetate (200 mM), H2O2 (200 mM) peracetic acid (ppm), 5 min ([4]; 5 min): 0 ppm
- propyl acetate (200 mM), H2O2 (200 mM) peracetic acid (ppm), 30 min ([4]; 30 min): 0 ppm

Compound: Chymopapain: Chymopapain, papaya latex, Sigma C8526
- acetamide (250 mM) peracetic acid (ppm), 5 min ([5]; 5 min): 66 ppm
- acetamide (250 mM) peracetic acid (ppm), 30 min ([5]; 30 min): 65 ppm
- diacetamide (250 mM) peracetic acid (ppm), 5 min ([6]; 5 min): 100 ppm
- diacetamide (250 mM) peracetic acid (ppm), 30 min ([6]; 30 min): 131 ppm
- triacetin (250 mM) peracetic acid (ppm), 5 min ([7]; 5 min): 72 ppm
- triacetin (250 mM) peracetic acid (ppm), 30 min ([7]; 30 min): 57 ppm
- triacetin (250 mM) peracetic acid (ppm), 5 min ([8]; 5 min): 69 ppm
- triacetin (250 mM) peracetic acid (ppm), 30 min ([8]; 30 min): 167 ppm
- acetamide (250 mM) peracetic acid (ppm), 5 min ([9]; 5 min): 94 ppm
- acetamide (250 mM) peracetic acid (ppm), 30 min ([9]; 30 min): 12 ppm
- diacetamide (250 mM) peracetic acid (ppm), 5 min ([10]; 5 min): 218 ppm
- diacetamide (250 mM) peracetic acid (ppm), 30 min ([10]; 30 min): 170 ppm
